Test results: patent US11510964B2, “Macrocyclic peptides to decrease c-Myc protein levels and reduce cancer cell growth” (University of Kansas, priority 2017, dated 2022)
Entries after “also recorded” stand apart in the source; their conditions may differ. Non-standard residues stand in square brackets, D forms with d. Residues, ends and D or L forms follow the SMILES beside them.

How the values were obtained:
PP2A in PC-3 cells = experiment: Western blot of p-PP2A/total PP2A protein levels; assay type: cell-based, human
Experimental: Cells were seeded in 6 well plates at a density of 1×10^5 cells/well and grown to 75% confluence. Cells were treated with [D-Trp]CJ-15,208 at the indicated concentrations. Cells were then harvested as described above, and the cell pellets lysed in RIPA buffer consisting of 10 mM Tris HCl, pH 8.0, 150 mM NaCl, 1 mM EDTA, 1% Triton-X-100, 0.1% SDS, 1% sodium deoxycholate, and a protease inhibitor cocktail #P8340 (Sigma). Cell lysates were centrifuged at 13×1000 rpm for 15 min and the supernatants collected. The total protein concentration was measured in cell lysates using the standard Bradford assay. SDS gel electrophoresis was performed using 4-20% polyacrylamide gel (BioRad). […] Signal densities of the protein bands were determined using ImageJ software (NIH) and normalized to the internal loading control (actin).
Each experiment was performed in triplicate unless otherwise stated in the figure legend. […] The effects of compound vs. vehicle treatment on protein levels (FIG. 10) were evaluated by one-way ANOVA with Dunnett's test for multiple comparisons.

c-Myc mRNA in PC-3 cells = experiment: c-Myc mRNA measurement (real-time PCR); assay type: cell-based, human; settings: 10 μM, 0 h to 48 h
Experimental: PC-3 cells were grown in 10 cm petri dishes to 75% confluency, and then treated with [D-Trp] CJ-15,208 (10 μM) for 2-48 h. Cells were harvested and the total RNA from each sample was isolated using the Aurum Total RNA Mini Kit #732-6820 (Bio-Rad) per the manufacturer's instructions. The RNA concentration in the sample was determined using a NanoDrop ND-1000 spectrophotometer. Total RNA (1 μg) from each sample was used to synthesize cDNA using the iScript cDNA Synthesis Kit (BioRad). Real-time PCR was performed with a Power-SYBR Green PCR Master Mix (Applied Biosystems) using the following thermal cycles: initial activation at 95° C. for 5 min, followed by 40 cycles of 95° C. for 15 s and 60° C. for 1 min. The fluorescence was determined at the melting temperature of the product for 20 s (ABI PRISM 7000 Sequence Detection System, Applied Biosystems). The following primer sets were used to amplify regions of c-Myc and GAPDH (internal control): c-Myc (forward: 5′-CTG GTG CTC CAT GAG GAG-3′ (SEQ ID NO: 1), reverse: 5′-AGG TGA TCC AGA CTC TGA C-3′ SEQ ID NO: 2)) and GAPDH (forward: 5′-CCA TGG AGA AGG CTG GGG-3′ (SEQ ID NO: 3), reverse: 5′-CAAATGTGTCATGGATGACC-3′ SEQ ID NO: 4)). The levels of c-Myc mRNA were normalized to the GAPDH mRNA levels.^37

## O=C1N[C@H](Cc2c[nH]c3ccccc23)C(=O)N[C@@H](Cc2ccccc2)C(=O)N2CCC[C@@H]2C(=O)N[C@H]1Cc1ccccc1 [[D-Trp]CJ-15,208, cyclo[Phe-D-Pro-Phe-D-Trp]] (cyclo(F[dP]F[dW]))
PP2A in PC-3 cells; PC-3, 48 h, vs. vehicle treated cells
  total PP2A protein levels: not significantly different
PP2A in PC-3 cells; PC-3, concentrations ≥10 μM, 48 h
  p-PP2A levels: significantly reduced
c-Myc mRNA in PC-3 cells
  c-Myc mRNA expression: did not affect mRNA expression; also recorded: did not alter cmyc mRNA levels
